# Test results as given in patent US20220194935A1, “PHENETHYL SUBSTITUTED IMIDAZO[4,5-C]QUINOLINE COMPOUNDS WITH AN N-1 BRANCHED GROUP” (3M INNOVATIVE PROPERTIES COMPANY, priority 2019, published 2022).
# System: Human peripheral blood mononuclear cells (PBMC)
# Assay: Cytokine Induction in Human Cells (PBMC), minimum effective concentration
# Assay type: cell-based
# Conditions: 21-24 hours, lowest concentration giving at least 2× negative control, tested 0.01-30 micromolar; for MEC to Induce Cytokine, IFN-alpha: ELISA; for MEC to Induce Cytokine, IFN-gamma / MEC to Induce Cytokine, TNF-alpha: multiplex bead assay
# Method: Whole blood was obtained from healthy human donors and collected by venipuncture into vacutainer tubes or syringes containing ethylene diamine tetraacetic acid (EDTA). Human peripheral blood mononuclear cells (PBMC) were purified from the whole blood by density gradient centrifugation. Histopaque 1077 (15 mL, Sigma, St. Louis, Mo.) was transferred to 6×50 mL sterile polypropylene conical tubes. The Histopaque was overlayed with 15-25 mL of blood diluted 1:2 in Hank's Balanced Salts Solution (HBSS) (Gibco, Life Technologies, Grand Island, N.Y.). The tubes were then centrifuged at 1370 revolutions per minute (rpm) for 30 minutes at 20° C., with no brake (400×g, GH 3.8A Rotor).
# The interface (buffy coat) containing the PBMC was collected and placed in a new sterile 50 mL conical polypropylene centrifuge tube. The PBMC were mixed with an equal volume of HBSS (about 20 mL from the interface and about 20 mL of HBSS), and then centrifuged at 1090 rpm, 10 minutes, 20° C., with brake (270×g, GH 3.8A Rotor). After completing centrifugation, the cells were resuspended in 2-3mL ACK Red blood cell lysis buffer (ammonium chloride potassium solution, Gibco, Life Technologies) and incubated for 2-5 minutes at 20° C. Next, HBSS (40 mL) was added to the cells, and the sample was centrifuged at 270×g for 10 minutes at 20° C. The supernatant was decanted, and the cell pellet was resuspended in 5 mL AIM V Medium (Gibco, Life Technologies). Cell aggregates and debris were removed by filtering the cell solution through a BD Falcon 70 micron nylon cell strainer (BD Biosciences, San Jose, Calif.).
# The number of viable cells was determined by counting with a Miltenyi FACS instrument (Miltenyi Biotec Inc., San Diego, Calif.) or by using a hemacytometer. For determining cell viability with a hemacytometer, the cells were diluted 1/10 in 0.4% trypan blue and HBSS (specifically, 50 microliter of trypan blue +40 microliter of HBSS +10 microliter of cell solution were added to a microfuge tube and mixed). Ten microliters of the diluted cells were then applied to the hemacytometer, and the number of viable PBMC were determined by microscopy.
# The PBMC sample was then resuspended in 96-well plates at a concentration of 8×10^5 cells/well in 0.1 mL of AIM-V medium. Each compound was solubilized in dimethyl sulfoxide (DMSO) to create a 3 mM stock solution. The stock solution was then further diluted with AIM-V medium to prepare the serial dilutions. The diluted compound (100 microliters) was then transferred to the PBMCs to produce testing sets with final compound concentrations of 30, 10, 3.3, 1.1, 0.37, 0.12, 0.04, 0.01 micromolar. The plates also had both positive and negative controls. The negative control wells contained only AIM-V medium with no example compound. The positive control wells contained a control set of imiquimod serially diluted to concentrations of 30, 10, 3.3, 1.1, 0.37, 0.12, 0.04, 0.01 micromolar. The concentrations used in the control set were selected to match the concentrations used in the testing set. The plates were then cultured at 37° C./5% CO2 for 21-24 hours. Cell-free supernatants were harvested by centrifuging the 96-well plates at 2100 rpm, 23° C. for 10 minutes. Approximately 160 microliters of the supernatant was then stored in a NUNC 96-well plate, covered with the compression cap and stored at −80° C. until the cytokine analysis was done.
# IFN-alpha cytokine levels (picograms/mL) were measured by ELISA (human IFN-alpha, pan specific, Mabtech, Cincinnati, Ohio). IFN-gamma and TNF-alpha levels (picograms/mL) were measured by multiplex bead assay (magnetic beads, R & D Systems, Minneapolis, Minn.) according to the manufacturer's instructions.
# Specifically, the minimum effective concentration of each compound (micromolar) was determined as the lowest concentration of the compound that induced a measured cytokine response at a level ([…]) that was at least 2× greater than that observed with the negative control wells.
Compound,"MEC to Induce Cytokine, IFN-alpha [µM]","MEC to Induce Cytokine, IFN-gamma [µM]","MEC to Induce Cytokine, TNF-alpha [µM]"
"COC[C@H](Cc1ccccc1)n1cnc2c(N)nc3ccccc3c21 [Example 5, 1-[(1S)-1-benzyl-2-methoxy-ethyl]imidazo[4,5-c]quinolin-4-amine]",≤0.01,≤0.01,≤0.01
"CCCC[C@H](Cc1ccccc1)n1cnc2c(N)nc3ccccc3c21 [Example 2, 1-[(1R)-1-benzylpentyl]imidazo[4,5-c]quinolin-4-amine]",≤0.01,≤0.01,≤0.01
"CCOC[C@@H](Cc1ccccc1)n1cnc2c(N)nc3ccccc3c21 [Example 4, 1-[(1R)-1-benzyl-2-ethoxy-ethyl]imidazo[4,5-c]quinolin-4-amine]",0.37,>30,0.37
"C[C@H](Cc1ccccc1)n1cnc2c(N)nc3ccccc3c21 [Example 1, 1-[(1R)-1-methyl-2-phenyl-ethyl]imidazo[4,5-c]quinolin-4-amine]",0.37,1.1,0.12
"COC[C@@H](Cc1ccccc1)n1cnc2c(N)nc3ccccc3c21 [Example 3, 1-[(1R)-1-benzyl-2-methoxy-ethyl]imidazo[4,5-c]quinolin-4-amine]",1.1,>30,1.1
"CCOC[C@H](Cc1ccccc1)n1cnc2c(N)nc3ccccc3c21 [Example 6, 1-[(1S)-1-benzyl-2-ethoxy-ethyl]imidazo[4,5-c]quinolin-4-amine]",≤0.01,≤0.01,≤0.01
"CCCCOc1ccc(C[C@@H](CCCC)n2cnc3c(N)nc4ccccc4c32)cc1 [Example 7, 1-[(1R)-1-[(4-butoxyphenyl)methyl]pentyl]imidazo[4,5-c]quinolin-4-amine]",≤0.01,≤0.01,≤0.01
"Nc1nc2ccccc2c2c1ncn2CCc1ccccc1 [Comparative Example 1, 1-phenethyl-1H-imidazo[4,5-c]quinolin-4-amine, reference compound]",1.1,>30,1.1
